US20110124607A1, “COMPOSITION FOR REGULATION CELLULAR SENESCENCE COMPRISING LYSOPHOSPHATIDIC ACID AND INHIBITOR OF ADENYLYL CYCLASE AS ACTIVE INGREDIENTS” (priority 2008, published 2011)

How the values were obtained:
[1] = system: p-Ser15-p53; assay: Immuno-blotting of p-Ser15-p53; type: cell-based, human; details: 10 mM AMPKI, 10 mM AICAR
Experimental: (§1) (A) and (B): Young and senescent cells were serum-starved for 2 days, followed by treatment with 10 mM of AMPK inhibitor […]) or 10 mM of AMPK activator AICAR(B) for 4 days. Proteins were extracted from the treated cells and the levels of AMPKα and p-Thr172-AMPKα, total p53, p-Ser15-p53 and […] measured by immuno-blotting. (C) and (D): Young cells (C) and senescent cells (D) were treated with 10 mM AMPKI or 10 mM AICAR and cultured for 4 days, followed by measurement of cell proliferation by cell counting. At this time, the experiment was repeated three times (p<0.001). (A) and (B) are photographs illustrating the results of immuno-blotting. Precisely, sub-cultured young cells (PD 18: A) and senescent cells (PD 64: B) were treated with 30 μM of LPA […] and ACI singly or together, followed by further culture for 1, 2, and 4 days. Proteins were extracted from the cultured cells and the levels of AMPKα, […] β-actin were quantified by immuno-blotting. (A) and (B) are photographs illustrating the results of immuno-blotting. Precisely, senescent cells (PD 64) were pre-treated with 10 mM of PKA inhibitor Rp-cAMP for one hour, followed by treatment with LPA(A) or ACI(B). After culturing the cells for 1, 2, and 4 days, proteins were extracted from the cultured cells and the levels of AMPKα, […] β-actin were quantified by immuno-blotting using 45 μg of the protein. To analyse protein expression, human fibroblasts were lysed in cold lysis buffer (25 mM Hepes, pH 8.0, 150 mM NaCl, 1 mM EDTA, 1 mM Na3VO4, 1 mM NaF, 1% Triton X-100 and protease inhibitors), followed by centrifugation at 4° C. at 9,000 rpm for 10 minutes to obtain supernatant. Protein in the extract was quantified […]. SDS-PAGE electrophoresis was performed with equal amount of the protein (45 μg) to separate. The separated protein was transferred onto NC membrane from the electrophoresis gel. Non-specific protein binding was blocked by blocking the blot (transferred NC membrane) using TTBS […] containing 5% skim milk for one hour. Then, antigen-antibody reaction was induced with diluted primary antibody at 4° C. for overnight. The blot was washed with TTBS, followed by reaction with horseradish peroxidase conjugated anti-IgGs diluted in TTBS containing 5% skim milk (1:5000) at room temperature for one hour. The blot was washed again with TTBS to eliminate non-specific binding of antigen-antibody. Photographs were developed/printed on X-ray film (Kodak) using ECL kit (Pierce) containing peroxidase substrate to identify each protein.

[2] = system: young cells (human fibroblasts); assay: Cell proliferation by counting live cells (trypan blue), young cells; type: cell-based; details: serum-starved 2 days, counted day 1, 2, 4, 30 μM LPA, 300 μM ACI, 10 mM AMPKI, 10 mM AICAR
Experimental: (§2) Human fibroblasts were prepared by primary culture of foreskin of a newborn baby (Boyce and Ham, 1983). The primary culture was performed in DMEM supplemented with 10% FBS and 1% antibiotics. The protein contents of young cells from the early stage of sub-culture, with a population doubling (PD) of less than 25, were compared to those of at least PD 65-70 senescent cells. […] In senescent cells, the activity of beta-galactosidase was increased and cell proliferation was reduced (Yeo et al., 2000).
(§3) Prior to LPA and ACI treatment, cells were grown for 1-2 days to 60-70% sub-confluence in DMEM-containing culture medium, and then serum-starved to quiescence (that is Go/G1 arrest) by incubation in a serum-free medium containing 0.1% bovine serum albumin (BSA) for 2 days. Young and senescent cells were treated with LPA, ACI, LPA+ACI, AMPKI and AICAR, respectively. Live cells were measured after staining the cells with trypan blue on day 1, day 2 and day 4 to confirm cell proliferation.
(§4) Cell proliferation and cAMP level were increased by LPA in senescent cells (Yeo et al., 2002). The AC inhibitor (ACI) was added to reduce cAMP which had been increased by LPA. And then, cell proliferation was investigated. Cells were cultured in serum-free medium for 2 days to arrest them in G0/G1 phase. Then, the cells were treated with LPA, ACI or LPA+ACI. Total cell number was measured on day 1, day 2 and day 4, or the cells entered into S phase were counted to evaluate cell proliferation. When young cells were treated with 300 μM of ACI, cell proliferation was reduced, compared with control (FIG. 1A). In the meantime, when senescent cells were treated with 300 μM of ACI, cell proliferation was increased, compared with control (FIG. 1B).

[3] = system: p21waf1/cip1; assay: Immuno-blotting of p21waf1/cip1; type: cell-based, human; details: 10 mM AMPKI, 10 mM AICAR
Experimental: as §1

[4] = system: senescent cells (human fibroblasts); assay: Cell proliferation by counting live cells (trypan blue), senescent cells; type: cell-based; details: serum-starved 2 days, counted day 1, 2, 4, 30 μM LPA, 300 μM ACI, 10 mM AMPKI, 10 mM AICAR
Experimental: as §2, §3, §4

[5] = system: p-Thr172-AMPKα; assay: Immuno-blotting of p-Thr172-AMPKα; type: cell-based, human; details: 30 μM LPA, 300 μM ACI, 10 mM AMPKI, 10 mM AICAR, up to day 4
Experimental: as §1

[6] = senescent cells, 30 μM LPA, 300 μM ACI

Q: What does the source list for `NC(=O)c1ncn([C@@H]2O[C@H](CO)[C@@H](O)[C@H]2O)c1N` [AICAR]?
A: p-Ser15-p53 expression [1, 6]: increased; p-Ser15-p53 expression ([1]; young cells, 4 days): increased; cell proliferation (cell number) compared with control [2]: suppressed; p21 expression (immuno-blotting) [3, 6]: increased; p21 expression (immuno-blotting) ([3]; young cells, 4 days): increased; cell proliferation (cell number) compared with control [4]: suppressed; Thr172-AMPKα phosphorylation ([5]; senescent cells): increased; Thr172-AMPKα phosphorylation ([5]; young cells): increased
